In ChEMBL document CHEMBL1201862, “PubChem BioAssay data set” (2004):
Activity calls are given as the source filed them.

Assays:
Assay type in all cases: functional
[1] = biological target: T1, Sentrin-specific protease 8 (Homo sapiens, UniProt Q96LD8);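 note: luminescence read-out of SENP8 inhibition, dose-response confirmation following an ultra-high-throughput screen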
T1 sequence (Q96LD8 whole entry): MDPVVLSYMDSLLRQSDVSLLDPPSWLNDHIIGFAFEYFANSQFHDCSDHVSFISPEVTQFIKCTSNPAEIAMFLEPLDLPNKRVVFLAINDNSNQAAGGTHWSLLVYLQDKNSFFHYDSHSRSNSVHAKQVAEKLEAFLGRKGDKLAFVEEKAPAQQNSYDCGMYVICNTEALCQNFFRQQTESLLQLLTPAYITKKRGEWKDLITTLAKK

[2] = biological target: T2, Tyrosine-protein kinase JAK3 (Homo sapiens, UniProt P52333)
T2 sequence (P52333 whole entry): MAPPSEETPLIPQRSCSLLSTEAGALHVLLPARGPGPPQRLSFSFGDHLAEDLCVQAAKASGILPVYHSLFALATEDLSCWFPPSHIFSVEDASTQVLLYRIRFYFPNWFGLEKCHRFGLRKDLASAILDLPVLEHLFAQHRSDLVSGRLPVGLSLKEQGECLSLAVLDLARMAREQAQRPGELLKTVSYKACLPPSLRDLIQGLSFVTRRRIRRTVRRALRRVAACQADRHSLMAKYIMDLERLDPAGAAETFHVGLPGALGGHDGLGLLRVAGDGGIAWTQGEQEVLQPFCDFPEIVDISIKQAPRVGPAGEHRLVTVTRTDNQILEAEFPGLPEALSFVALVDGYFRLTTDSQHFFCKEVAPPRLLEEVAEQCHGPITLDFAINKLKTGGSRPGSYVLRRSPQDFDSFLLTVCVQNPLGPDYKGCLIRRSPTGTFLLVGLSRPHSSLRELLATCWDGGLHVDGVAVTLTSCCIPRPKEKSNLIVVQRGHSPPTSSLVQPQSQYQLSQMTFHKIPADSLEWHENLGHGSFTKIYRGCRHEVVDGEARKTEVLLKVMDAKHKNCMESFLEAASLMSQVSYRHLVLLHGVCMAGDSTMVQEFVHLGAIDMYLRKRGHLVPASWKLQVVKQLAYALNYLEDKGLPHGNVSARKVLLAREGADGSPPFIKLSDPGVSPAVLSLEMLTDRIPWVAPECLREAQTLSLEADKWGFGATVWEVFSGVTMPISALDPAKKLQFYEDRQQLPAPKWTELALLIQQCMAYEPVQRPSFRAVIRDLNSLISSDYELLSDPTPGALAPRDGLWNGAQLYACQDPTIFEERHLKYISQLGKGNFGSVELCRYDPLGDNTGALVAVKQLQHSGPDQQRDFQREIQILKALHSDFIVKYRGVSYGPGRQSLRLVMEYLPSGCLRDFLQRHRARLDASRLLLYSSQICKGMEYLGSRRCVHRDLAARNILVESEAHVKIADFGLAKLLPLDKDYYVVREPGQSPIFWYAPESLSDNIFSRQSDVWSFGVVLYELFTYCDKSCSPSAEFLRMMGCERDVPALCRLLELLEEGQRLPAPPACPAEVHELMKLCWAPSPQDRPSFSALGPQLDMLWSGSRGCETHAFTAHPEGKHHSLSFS

[3] = biological target: Proto-oncogene tyrosine-protein kinase receptor Ret (Homo sapiens, UniProt P07949);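 note: measured within a kinome-wide profiling panel, RET as the panel member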
[4] = biological target: Dual specificity protein kinase CLK2 (Homo sapiens, UniProt P49760)
[5] = biological target: T3, Serine/threonine-protein kinase D3 (Homo sapiens, UniProt O94806);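 note: determined within a kinase panel screen, with PRKCN as the panel member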
T3 sequence (O94806 whole entry): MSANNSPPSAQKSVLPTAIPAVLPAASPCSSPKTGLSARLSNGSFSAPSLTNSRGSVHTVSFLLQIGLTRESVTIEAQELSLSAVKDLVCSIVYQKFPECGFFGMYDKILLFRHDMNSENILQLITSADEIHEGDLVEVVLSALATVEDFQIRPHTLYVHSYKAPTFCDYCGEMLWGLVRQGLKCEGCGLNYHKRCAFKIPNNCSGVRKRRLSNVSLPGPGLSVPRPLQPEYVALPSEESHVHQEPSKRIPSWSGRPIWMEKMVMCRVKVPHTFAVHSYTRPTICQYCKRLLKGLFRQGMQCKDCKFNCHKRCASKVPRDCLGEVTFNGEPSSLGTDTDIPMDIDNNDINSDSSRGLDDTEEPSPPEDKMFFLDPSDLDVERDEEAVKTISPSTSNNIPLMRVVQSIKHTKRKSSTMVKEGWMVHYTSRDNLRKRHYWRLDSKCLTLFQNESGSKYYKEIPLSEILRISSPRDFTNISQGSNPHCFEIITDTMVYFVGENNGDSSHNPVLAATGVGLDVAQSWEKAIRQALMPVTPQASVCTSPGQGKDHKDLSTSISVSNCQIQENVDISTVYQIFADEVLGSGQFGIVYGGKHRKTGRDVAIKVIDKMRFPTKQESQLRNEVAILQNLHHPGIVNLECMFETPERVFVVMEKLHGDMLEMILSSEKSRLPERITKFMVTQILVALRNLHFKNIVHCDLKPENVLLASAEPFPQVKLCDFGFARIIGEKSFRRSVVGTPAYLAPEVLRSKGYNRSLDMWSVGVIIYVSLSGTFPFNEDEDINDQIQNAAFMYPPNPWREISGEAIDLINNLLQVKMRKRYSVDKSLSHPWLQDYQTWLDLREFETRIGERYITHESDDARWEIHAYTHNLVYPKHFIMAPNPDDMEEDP

[6] = biological target: BDNF/NT-3 growth factors receptor (Homo sapiens, UniProt Q16620);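 note: NTRK2 measured as one member of a broad kinome-wide kinase profiling panel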
Aurora kinase A = biological target: T4, Aurora kinase A (Homo sapiens, UniProt O14965);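 note: value from the Navigating the Kinome kinase panel profiling, panel entry STK6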
T4 sequence (O14965 whole entry): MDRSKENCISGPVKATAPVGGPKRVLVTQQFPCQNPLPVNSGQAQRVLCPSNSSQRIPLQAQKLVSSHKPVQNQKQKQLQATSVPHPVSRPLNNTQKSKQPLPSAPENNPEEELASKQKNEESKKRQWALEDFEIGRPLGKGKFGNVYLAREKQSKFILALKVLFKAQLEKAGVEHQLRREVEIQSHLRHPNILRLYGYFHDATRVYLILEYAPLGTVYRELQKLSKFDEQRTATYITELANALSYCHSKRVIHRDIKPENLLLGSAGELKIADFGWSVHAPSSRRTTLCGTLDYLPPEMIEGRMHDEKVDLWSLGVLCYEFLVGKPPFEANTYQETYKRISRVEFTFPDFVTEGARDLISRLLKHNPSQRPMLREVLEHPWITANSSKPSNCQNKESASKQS

[7] = biological target: Dual specificity protein kinase CLK4 (Homo sapiens, UniProt Q9HAZ1)
[8] = biological target: Mitogen-activated protein kinase kinase kinase kinase 2 (Homo sapiens, UniProt Q12851);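 note: measured as one member of a kinome-wide kinase panel, with MAP4K2 as the panel entry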
Chain of Mitogen-activated protein kinase kinase kinase kinase 2 (Q12851 whole entry): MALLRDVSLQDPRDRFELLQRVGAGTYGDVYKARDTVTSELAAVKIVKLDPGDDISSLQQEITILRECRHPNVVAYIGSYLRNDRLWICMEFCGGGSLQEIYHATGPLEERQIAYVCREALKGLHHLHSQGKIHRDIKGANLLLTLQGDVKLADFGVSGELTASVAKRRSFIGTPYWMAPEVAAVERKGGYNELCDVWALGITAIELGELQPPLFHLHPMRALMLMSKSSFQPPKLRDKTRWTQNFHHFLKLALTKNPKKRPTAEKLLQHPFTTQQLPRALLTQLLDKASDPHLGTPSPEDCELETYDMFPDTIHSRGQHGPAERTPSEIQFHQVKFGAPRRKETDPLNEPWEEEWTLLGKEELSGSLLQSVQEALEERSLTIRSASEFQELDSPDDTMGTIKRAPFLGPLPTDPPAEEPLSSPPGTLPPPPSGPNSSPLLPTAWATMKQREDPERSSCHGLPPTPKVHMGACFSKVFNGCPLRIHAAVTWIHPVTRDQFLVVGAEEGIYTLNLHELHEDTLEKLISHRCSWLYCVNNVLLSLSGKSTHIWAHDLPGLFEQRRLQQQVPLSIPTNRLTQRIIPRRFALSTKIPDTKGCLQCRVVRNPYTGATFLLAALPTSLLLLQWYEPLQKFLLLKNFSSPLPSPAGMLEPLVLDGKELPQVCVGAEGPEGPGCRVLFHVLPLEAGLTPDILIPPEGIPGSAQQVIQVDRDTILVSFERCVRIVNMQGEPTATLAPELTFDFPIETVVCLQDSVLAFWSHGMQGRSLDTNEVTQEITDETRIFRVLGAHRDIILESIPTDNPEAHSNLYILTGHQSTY

Chain of Dual specificity protein kinase CLK2 (P49760 whole entry): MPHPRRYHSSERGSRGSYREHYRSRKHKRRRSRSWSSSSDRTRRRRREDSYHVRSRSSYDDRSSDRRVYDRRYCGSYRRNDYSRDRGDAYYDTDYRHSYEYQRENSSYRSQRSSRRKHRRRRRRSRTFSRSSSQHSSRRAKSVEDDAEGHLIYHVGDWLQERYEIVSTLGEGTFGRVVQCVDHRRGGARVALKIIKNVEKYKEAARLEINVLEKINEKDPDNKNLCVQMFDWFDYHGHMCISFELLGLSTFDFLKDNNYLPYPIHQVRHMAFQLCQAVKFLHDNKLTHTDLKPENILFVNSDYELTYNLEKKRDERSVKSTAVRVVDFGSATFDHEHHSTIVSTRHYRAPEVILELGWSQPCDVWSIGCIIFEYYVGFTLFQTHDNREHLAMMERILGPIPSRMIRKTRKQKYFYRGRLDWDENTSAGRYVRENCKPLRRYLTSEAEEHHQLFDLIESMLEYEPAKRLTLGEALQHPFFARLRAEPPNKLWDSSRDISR
Chain of Proto-oncogene tyrosine-protein kinase receptor Ret (P07949 whole entry): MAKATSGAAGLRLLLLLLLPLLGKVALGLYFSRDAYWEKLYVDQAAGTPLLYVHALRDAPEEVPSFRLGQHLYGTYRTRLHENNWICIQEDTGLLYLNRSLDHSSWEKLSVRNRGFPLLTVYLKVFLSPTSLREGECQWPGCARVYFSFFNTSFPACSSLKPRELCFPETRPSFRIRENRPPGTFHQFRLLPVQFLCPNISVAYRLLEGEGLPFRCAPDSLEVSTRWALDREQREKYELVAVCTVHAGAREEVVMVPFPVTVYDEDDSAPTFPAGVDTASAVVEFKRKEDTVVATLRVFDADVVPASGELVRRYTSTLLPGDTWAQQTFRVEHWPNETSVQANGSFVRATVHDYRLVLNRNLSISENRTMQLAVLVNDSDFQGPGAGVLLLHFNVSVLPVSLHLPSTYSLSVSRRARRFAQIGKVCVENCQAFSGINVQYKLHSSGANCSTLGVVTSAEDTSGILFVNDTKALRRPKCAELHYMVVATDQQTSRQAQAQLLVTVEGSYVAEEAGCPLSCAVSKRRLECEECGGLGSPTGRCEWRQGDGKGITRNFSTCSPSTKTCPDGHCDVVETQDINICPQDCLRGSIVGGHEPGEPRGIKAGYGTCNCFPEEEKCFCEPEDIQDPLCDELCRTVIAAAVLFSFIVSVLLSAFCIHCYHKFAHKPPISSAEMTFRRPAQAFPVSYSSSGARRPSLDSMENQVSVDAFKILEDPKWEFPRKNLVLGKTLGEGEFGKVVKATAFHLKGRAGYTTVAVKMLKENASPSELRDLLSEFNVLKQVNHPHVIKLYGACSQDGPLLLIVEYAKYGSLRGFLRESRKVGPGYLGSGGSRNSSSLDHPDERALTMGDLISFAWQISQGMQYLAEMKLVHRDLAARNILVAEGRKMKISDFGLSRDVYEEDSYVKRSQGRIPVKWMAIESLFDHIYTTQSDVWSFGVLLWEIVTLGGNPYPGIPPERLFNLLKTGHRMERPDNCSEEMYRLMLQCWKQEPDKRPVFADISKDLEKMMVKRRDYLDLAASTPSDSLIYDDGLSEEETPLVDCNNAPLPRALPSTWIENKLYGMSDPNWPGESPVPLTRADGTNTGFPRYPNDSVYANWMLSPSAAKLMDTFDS
Chain of BDNF/NT-3 growth factors receptor (Q16620 whole entry): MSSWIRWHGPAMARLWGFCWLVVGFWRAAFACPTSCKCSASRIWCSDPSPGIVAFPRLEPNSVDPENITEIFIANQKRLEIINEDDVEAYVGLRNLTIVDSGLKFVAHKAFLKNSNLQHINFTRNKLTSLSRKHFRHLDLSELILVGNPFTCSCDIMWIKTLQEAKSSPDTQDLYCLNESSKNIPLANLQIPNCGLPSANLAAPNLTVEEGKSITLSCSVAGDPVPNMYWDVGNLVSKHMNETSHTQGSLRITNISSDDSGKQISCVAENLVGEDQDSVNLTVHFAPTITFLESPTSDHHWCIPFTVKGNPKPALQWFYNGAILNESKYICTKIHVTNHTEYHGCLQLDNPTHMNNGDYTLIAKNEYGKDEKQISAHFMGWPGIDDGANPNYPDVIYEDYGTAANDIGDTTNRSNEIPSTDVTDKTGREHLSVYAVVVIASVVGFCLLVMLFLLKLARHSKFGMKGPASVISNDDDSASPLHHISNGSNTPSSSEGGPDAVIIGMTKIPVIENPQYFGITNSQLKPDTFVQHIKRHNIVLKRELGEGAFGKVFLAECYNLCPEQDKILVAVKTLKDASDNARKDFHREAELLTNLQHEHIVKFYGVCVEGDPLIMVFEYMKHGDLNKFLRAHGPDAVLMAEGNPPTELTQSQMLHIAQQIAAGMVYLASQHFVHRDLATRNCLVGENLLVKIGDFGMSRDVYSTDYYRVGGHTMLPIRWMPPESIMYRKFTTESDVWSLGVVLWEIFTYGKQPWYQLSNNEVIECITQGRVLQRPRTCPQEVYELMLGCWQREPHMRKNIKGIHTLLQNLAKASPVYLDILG
Chain of Dual specificity protein kinase CLK4 (Q9HAZ1 whole entry): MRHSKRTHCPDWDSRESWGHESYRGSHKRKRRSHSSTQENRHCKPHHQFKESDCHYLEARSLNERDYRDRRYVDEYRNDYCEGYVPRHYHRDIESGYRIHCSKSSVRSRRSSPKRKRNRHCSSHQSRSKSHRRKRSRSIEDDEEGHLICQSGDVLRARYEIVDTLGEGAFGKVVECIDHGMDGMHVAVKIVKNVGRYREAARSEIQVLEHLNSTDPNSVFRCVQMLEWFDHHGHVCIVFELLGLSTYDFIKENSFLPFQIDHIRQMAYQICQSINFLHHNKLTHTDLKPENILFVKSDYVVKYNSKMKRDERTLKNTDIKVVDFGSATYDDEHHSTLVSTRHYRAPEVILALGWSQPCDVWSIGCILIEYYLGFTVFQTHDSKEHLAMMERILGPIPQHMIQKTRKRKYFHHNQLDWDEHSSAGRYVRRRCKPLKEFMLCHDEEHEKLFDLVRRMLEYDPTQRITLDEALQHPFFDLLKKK

Structure (SMILES) | IC50 [1] | Ki [2] | Ki [3] | Ki [4] | Ki [5] | Ki [6] | Ki (Aurora kinase A) | Ki [7] | Ki [8]
Cc1ccc(NC2=C(NCCO)C(=O)c3ccccc3C2=O)cc1 | 9.12 µM (active) |  |  |  |  |  |  |  | 
CC(/C=C1\SC(=S)N(NS(=O)(=O)c2ccc(C)cc2)C1=O)=C\c1ccccc1 | 3.94 µM (active) |  |  |  |  |  |  |  | 
Cc1ccc(C)c(NC(=O)c2cc(-c3ccco3)nc3ccccc23)c1 |  | > 5.01 µM (inactive) | 3.16 µM (active) | > 3.98 µM (inactive) | 1.58 µM (active) | > 3.98 µM (inactive) | 1 µM (active) | 0.398 µM (active) | 
COc1ccc(C2=NNc3cccc4c(OC)ccc2c34)cc1OC |  | 0.251 µM (active) | 0.501 µM (active) | 0.316 µM (active) | 0.398 µM (active) | > 3.98 µM (inactive) | > 1.58 µM (inactive) | 0.0631 µM (active) | 2 µM (active)
CN1CCC(c2c(O)cc(O)c3c(=O)cc(-c4ccccc4Cl)oc23)C(O)C1 (stereo not given) |  | > 3.98 µM (inactive) | > 2 µM (inactive) | > 3.16 µM (inactive) | 0.316 µM (active) | > 3.98 µM (inactive) | > 1.58 µM (inactive) | 1.26 µM (active) | 1 µM (active)
